In ChEMBL document CHEMBL5346930, “Discovery of novel N-benzylarylamide-dithiocarbamate based derivatives as dual inhibitors of tubulin polymerization and LSD1 that inhibit gastric cancers” (Eur J Med Chem, 2023):
Calls of active or inactive are those of the source. No cut-off for these calls is given here.

Assays:
NCI-H520 = assay: Antiproliferative activity against human NCI-H520 cells assessed as inhibition of cell growth incubated for 48 hrs by MTT assay; assay type: functional, cell-based; details: NCI-H520, 48 h
[1] = target: T1, Lysine-specific histone demethylase 1A (Homo sapiens, UniProt O60341); assay: Inhibition of LSD1 in human MGC-803 cells assessed as increase in H3K4me2 expression level at 0 to 24 nmol/L incubated for 48 hrs by Western blot analysis; assay type: cell-based; details: dose 0-24 nmol/L
[2] = target: T1, Lysine-specific histone demethylase 1A; assay: Inhibition of LSD1 in human SGC-7901 cells assessed as increase in H3K9me1/2 expression level at 0 to 30 nmol/L incubated for 48 hrs by Western blot analysis; assay type: cell-based; details: dose 0-30 nmol/L
SGC-7901 [3] = assay: Induction of cell cycle arrest in human SGC-7901 cells assessed as accumulation of cells at G2/M phase at 30 nmol/L incubated for 48 hrs (reference value: 32%); assay type: functional
MGC-803 [4] = assay: Induction of cell cycle arrest in human MGC-803 cells assessed as accumulation of cells at G2/M phase incubated for 48 hrs; assay type: functional, cell-based; details: dose 0-24 nmol/L
SGC-7901 [5] = assay: Induction of cell cycle arrest in human SGC-7901 cells assessed as accumulation of cells at G2/M phase incubated for 48 hrs; assay type: functional, cell-based; details: dose 0-30 nmol/L
MGC-803 [6] = assay: Induction of cell cycle arrest in human MGC-803 cells assessed as reduction in CDC2 phosphorylation at Thr161 residue at 0 to 24 nmol/L incubated for 48 hrs by Western blot analysis; assay type: functional, cell-based; details: dose 0-24 nmol/L
SGC-7901 [7] = assay: Induction of cell cycle arrest in human SGC-7901 cells assessed as reduction in cyclin B1 protein expression incubated for 48 hrs by Western blot analysis; assay type: functional, cell-based; details: dose 0-30 nmol/L
MGC-803 [8] = assay: Induction of morphological changes in human MGC-803 cells assessed as increase in proportion of dead cells at 0 to 24 nmol/L incubated for 48 hrs by calcein-AM/PI staining based analysis; assay type: functional, cell-based; details: dose 0-24 nmol/L
SGC-7901 [9] = assay: Induction of morphological changes in human SGC-7901 cells assessed as appearance of broken nucleus at 30 nM incubated for 48 hrs by DAPI staining based analysis; assay type: functional, cell-based
MGC-803 [10] = assay: Induction of apoptosis in human MGC-803 cells assessed as increase in total apoptotic cells incubated for 48 hrs by Annexin-FITC/PI staining based flow cytometry analysis; assay type: functional, cell-based; details: dose 0-24 nmol/L
MGC-803 [11] = assay: Induction of apoptosis in human MGC-803 cells assessed as activation of caspase-3 at 0 to 24 nmol/L incubated for 48 hrs by Western blot analysis; assay type: functional, cell-based; details: dose 0-24 nmol/L
MGC-803 [12] = assay: Induction of apoptosis in human MGC-803 cells assessed as increase in cleaved caspase-3 level at 0 to 24 nmol/L incubated for 48 hrs by Western blot analysis; assay type: functional, cell-based; details: dose 0-24 nmol/L
SGC-7901 [13] = assay: Induction of apoptosis in human SGC-7901 cells assessed as increase in cleaved caspase-3 level at 0 to 30 nmol/L incubated for 48 hrs by Western blot analysis; assay type: functional, cell-based; details: dose 0-30 nmol/L
MGC-803 [14] = assay: Antitumor activity against human MGC-803 cells xenografted in BALB/c nude mouse assessed as reduction in tumor weight at 25 mg/kg/day, ip administered every day for 21 days; assay type: functional, organism-based; details: time 21.0 day
[15] = Nephrotoxicity in BALB/c nude mouse xenografted with human MGC-803 cells assessed as effect on BUN level at 25 mg/kg/day, ip administered every day for 21 days; assay type: toxicity, organism-based; details: in vivo, 504 h, time 21 day

IC50 (NCI-H520): 22.5 nM
inhibition [1]: Active
inhibition [2]: Active
SMILES: COc1ccc(CN(C(=O)CSC(=S)N2CCN(c3ccc(N)cc3)CC2)c2cc(OC)c(OC)c(OC)c2)cc1O
Activity (SGC-7901 [3]): 74%
Activity (MGC-803 [4]): Dose-Dependent Effect
Activity (SGC-7901 [5]): Dose-Dependent Effect
Activity (MGC-803 [6]): Active
Activity (SGC-7901 [7]): Dose-Dependent Effect
Activity (MGC-803 [8]): Active
Activity (SGC-7901 [9]): Active
Activity (MGC-803 [10]): Dose-Dependent Effect
Activity (MGC-803 [11]): Active
Activity (MGC-803 [12]): Active
Activity (SGC-7901 [13]): Active
Activity (MGC-803 [14]): Active
Activity [15]: Non-Toxic
